Test results taken from patent publication US4487937A, “2-(2-Substitutedamino-4-thiazolyl)-2-(1-methoxy-isopropoxyimino)-acetic acids” (Roussel Uclaf, priority 1977, dated 1984).
Read-outs that look alike come from different tables or passages of the source.

How the values were obtained:
Test in all cases: In vitro MIC, dilution of a liquid medium
Assay type in all cases: cell-based
[1] = test system: Bacillus subtilis ATCC 6 633; conditions: 37° C., read-out: minimum inhibiting concentration (MIC)
Protocol: (§1) The method used was a dilution of a liquid medium where a series of tubes received the same quantity of a sterile nutritive media and increasing doses of the test compounds were placed therein. Then each tube was seeded with a bacterial strain and was incubated for 24 or 48 hours at 37° C. in an oven. The increasing inhibition was determined by transillumination to determine the minimum inhibiting concentration (MIC in μg/ml) and the results are reported in the following Tables.

Enterobacter cloacae 681 = conditions: 37° C., read-out: minimum inhibiting concentration (MIC)
Protocol: as §1

[2] = test system: Escherichia Coli Exp. TO26 B6; conditions: 37° C., read-out: minimum inhibiting concentration (MIC)
Protocol: as §1

[3] = test system: Escherichia Coli Resistant Gentamicine, Tobramycine R 55 123 D; conditions: read-out: minimum inhibiting concentration (MIC)
Protocol: as §1

[4] = test system: Escherichia Coli Resistant Tetracycline ATCC 11 303; conditions: 37° C., read-out: minimum inhibiting concentration (MIC)
Protocol: as §1

[5] = test system: Escherichia Coli Sensitive Tetracycline ATCC 9 637; conditions: read-out: minimum inhibiting concentration (MIC)
Protocol: as §1

[6] = test system: Klebsiella pneumoniae 2 536 Resistant Gentamicine; conditions: 37° C., read-out: minimum inhibiting concentration (MIC)
Protocol: as §1

[7] = test system: Klebsiella pneumoniae Exp. 52 145; conditions: 37° C., read-out: minimum inhibiting concentration (MIC)
Protocol: as §1

[8] = test system: Proteus mirabilis (indol -) A 235; conditions: 37° C., read-out: minimum inhibiting concentration (MIC)
Protocol: as §1

[9] = test system: Proteus vulgaris (indol +) A 232; conditions: 37° C., read-out: minimum inhibiting concentration (MIC)
Protocol: as §1

Providencia Du 48 = conditions: 37° C., read-out: minimum inhibiting concentration (MIC)
Protocol: as §1

[10] = test system: Salmonella typhimurium 420; conditions: Salmonella enterica, 37° C., read-out: minimum inhibiting concentration (MIC)
Protocol: as §1

[11] = test system: Serratia Resistant Gentamicine 2 532; conditions: 37° C., read-out: minimum inhibiting concentration (MIC)
Protocol: as §1

[12] = test system: Staphylococcus aureus ATCC 6 538 Penicillin-Sensitive; conditions: 37° C., read-out: minimum inhibiting concentration (MIC)
Protocol: as §1

[13] = test system: Staphylococcus aureus UC 1 128 Penicillin-resistant; conditions: 37° C., read-out: minimum inhibiting concentration (MIC)
Protocol: as §1

[14] = test system: Staphylococcus aureus exp. n° 54 146; conditions: 37° C., read-out: minimum inhibiting concentration (MIC)
Protocol: as §1

[15] = test system: Streptococcus faecalis 5 432; conditions: Enterococcus faecalis, 5432, 37° C., read-out: minimum inhibiting concentration (MIC)
Protocol: as §1

[16] = test system: Streptococcus faecalis 99 F 74; conditions: Enterococcus faecalis, 99F74, 37° C., read-out: minimum inhibiting concentration (MIC)
Protocol: as §1

[17] = test system: Streptococcus pyogenes A 561; conditions: 37° C., read-out: minimum inhibiting concentration (MIC)
Protocol: as §1

Compound: CC(=O)OCC1=C(C(=O)O)N2C(=O)C(NC(=O)/C(=N\OC(C)(C)C(=O)O)c3csc(N)n3)[C@H]2SC1 (some centres unmarked) [Example 14, disodium 7-[2-(2-amino-4-thiazolyl)-2-(1-carboxy-1-methylethoxyimino)-acetamido]-3-acetoxymethyl-ceph-3-eme-4-carboxylate]
- MIC ([1]; ATCC6, 24 H): 10 µg/mL
- MIC ([1]; ATCC6, 48 H): > 40 µg/mL
- MIC (Enterobacter cloacae 681; 24 H): 40 µg/mL
- MIC (Enterobacter cloacae 681; 48 H): > 40 µg/mL
- MIC ([2]; 24 H): 0.5 µg/mL
- MIC ([2]; 48 H): 0.5 µg/mL
- MIC ([3]; 24 h): 0.5 µg/mL
- MIC ([3]; 48 h): 0.5 µg/mL
- MIC ([4]; ATCC11, 24 H): 0.2 µg/mL
- MIC ([4]; ATCC11, 48 H): 0.2 µg/mL
- MIC ([5]; ATCC9, 24 h): 0.5 µg/mL
- MIC ([5]; ATCC9, 48 h): 0.5 µg/mL
- MIC ([6]; 24 H): 1 µg/mL
- MIC ([6]; 48 H): 1 µg/mL
- MIC ([7]; EXP.52145, 24 H): 1 µg/mL
- MIC ([7]; EXP.52145, 48 H): 1 µg/mL
- MIC ([8]; 24 H): 0.05 µg/mL
- MIC ([8]; 48 H): 0.05 µg/mL
- MIC ([9]; 24 H): 0.1 µg/mL
- MIC ([9]; 48 H): 3 µg/mL
- MIC (Providencia Du 48; DU48, 24 H): 2 µg/mL
- MIC (Providencia Du 48; DU48, 48 H): 3 µg/mL
- MIC ([10]; 24 H): 1 µg/mL
- MIC ([10]; 48 H): 1 µg/mL
- MIC ([11]; 24 H): 1 µg/mL
- MIC ([11]; 48 H): 1 µg/mL
- MIC ([12]; ATCC6, 24 H): 20 µg/mL
- MIC ([12]; ATCC6, 48 H): 20 µg/mL
- MIC ([13]; UC1, 24 H): 20 µg/mL
- MIC ([13]; UC1, 48 H): 40 µg/mL
- MIC ([14]; 24 H): 20 µg/mL
- MIC ([14]; 48 H): > 40 µg/mL
- MIC ([15]; 24 H): > 40 µg/mL
- MIC ([15]; 48 H): > 40 µg/mL
- MIC ([16]; 24 H): > 40 µg/mL
- MIC ([16]; 48 H): > 40 µg/mL
- MIC ([17]; A561, 24 H): 1 µg/mL
- MIC ([17]; A561, 48 H): 1 µg/mL
